In the assay the target is T1, PDE4B (human recombinant) (Homo sapiens, UniProt Q07343).
T1 construct: made in house
T1 sequence (Q07343 1-564 isoform Q07343-2): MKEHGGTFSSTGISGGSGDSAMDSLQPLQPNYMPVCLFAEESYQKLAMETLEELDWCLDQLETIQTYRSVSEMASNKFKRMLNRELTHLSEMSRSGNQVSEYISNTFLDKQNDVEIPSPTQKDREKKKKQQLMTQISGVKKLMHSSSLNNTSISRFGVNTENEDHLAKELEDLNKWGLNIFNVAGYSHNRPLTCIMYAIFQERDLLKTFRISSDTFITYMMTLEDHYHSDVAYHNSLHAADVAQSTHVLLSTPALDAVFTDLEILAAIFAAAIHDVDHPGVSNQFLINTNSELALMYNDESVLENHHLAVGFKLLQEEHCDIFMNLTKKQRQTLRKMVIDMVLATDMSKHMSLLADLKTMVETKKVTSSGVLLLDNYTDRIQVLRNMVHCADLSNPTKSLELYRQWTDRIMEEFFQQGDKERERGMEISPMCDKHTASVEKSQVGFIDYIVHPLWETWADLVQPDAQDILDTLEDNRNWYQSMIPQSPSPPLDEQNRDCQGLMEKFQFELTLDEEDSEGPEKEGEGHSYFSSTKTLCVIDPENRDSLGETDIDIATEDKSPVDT
The assay can be described thus: Inhibition of PDE4B activity: radioactive SPA or IMAP Fluorescence Polarisation (FP) assay. The assay is classed as biochemical. To be noted: PDE4B inhibitory activity, one reading or average of ca. 2-6 readings, read-out: PDE4B pIC50 (± about 0.5) (converted). The method in brief: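 SPA: yeast-expressed human recombinant PDE4B was preincubated with compound for 10–30 min at ambient temperature in Tris pH 7.5 with MgCl2, EGTA and BSA, then run 1 h with ~10 nM [3H]cAMP at ≤20% hydrolysis; 10 concentrations (1.5 nM–30 μM) gave pIC50. IMAP FP: Tris pH 7.2 with ~40 nM fluorescein-cAMP, under linear enzyme conditions.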
On the technique in general: Polarisation of emitted light reports the rotation of a fluorescent probe.
Regarding `CCn1ncc2c(NC3CCOCC3)c(C(=O)Nc3ccc(F)cc3)cnc21` [Example 22, 1-Ethyl-N-(4-fluorophenyl)-4-(tetrahydro-2H-pyran-4-ylamino)-1H-pryazolo[3,4-b]pyridine-5-carboxamide], the IC50 was 12.6 nM.

On to `CCNC(=O)c1cnc2c(cnn2CC)c1NC1CCOCC1` [Example 83, 1-Ethyl-N-ethyl-4-(tetrahydro-2H-pyran-4-ylamino)-1H-pyrazolo[3,4-b]pyridine-5-carboxamide], for which the IC50 is 12.6 to 100 nM.

Consider `CCn1ncc2c(NC3CCOCC3)c(C(=O)NCc3ccc(C(F)(F)F)cc3)cnc21` [Example 155, 1-Ethyl-4-(tetrahydro-2H-pyran-4-ylamino)-N-[4-(trifluoromethyl)benzyl]-1H-pyrazolo[3,4-b]pyridine-5-carboxamide], for which the IC50 was 0.1 to 6.31 nM.

For the origin of these results see US20060089375A1, “Pyrazolo[3,4-b] pyridine compounds, and their use as phosphodiesterase inhibitors” (priority 2002, published 2006).
